Results reported in patent US11285226B2, “Aryl ethene derivative and pharmaceutical composition containing same as active ingredient” (priority 2016, dated 2022).

What was measured:
ERRγ = assay type: cell-based; details: for Functional Assay, Cpds/Ref 5182: activity relative to reference compound GSK5182; for Functional Assay at 10 μM (% of control), Cpds: AD293, 24 hours
CYP2C19 = CYP2C19 (Homo sapiens (Human), UniProt P33261); experiment: Cytochrome P450 activity inhibition, CYP2C19; assay type: in vitro ADME; details: 10 μM, human liver microsomes
CYP2C19, sequence (P33261 whole entry): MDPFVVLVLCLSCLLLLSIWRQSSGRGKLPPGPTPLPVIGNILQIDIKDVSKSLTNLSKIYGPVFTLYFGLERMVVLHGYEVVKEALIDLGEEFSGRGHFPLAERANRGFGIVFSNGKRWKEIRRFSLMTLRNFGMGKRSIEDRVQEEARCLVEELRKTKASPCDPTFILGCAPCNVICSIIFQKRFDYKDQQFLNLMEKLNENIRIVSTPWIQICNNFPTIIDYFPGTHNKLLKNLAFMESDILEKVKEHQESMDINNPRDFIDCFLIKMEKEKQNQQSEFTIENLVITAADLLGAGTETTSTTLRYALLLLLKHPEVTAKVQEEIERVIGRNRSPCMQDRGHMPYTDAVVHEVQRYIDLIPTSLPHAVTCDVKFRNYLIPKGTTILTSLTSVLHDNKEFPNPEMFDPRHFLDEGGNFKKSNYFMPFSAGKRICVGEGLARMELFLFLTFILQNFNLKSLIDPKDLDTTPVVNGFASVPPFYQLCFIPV
Description: (§1) 1) Cytochrome P450 (CYP450) Activity Inhibition Evaluation

CYP3A4 = CYP3A4 (Homo sapiens (Human), UniProt P08684); experiment: Cytochrome P450 activity inhibition, CYP3A4; assay type: in vitro ADME; details: 10 μM, human liver microsomes
CYP3A4, sequence (P08684 whole entry): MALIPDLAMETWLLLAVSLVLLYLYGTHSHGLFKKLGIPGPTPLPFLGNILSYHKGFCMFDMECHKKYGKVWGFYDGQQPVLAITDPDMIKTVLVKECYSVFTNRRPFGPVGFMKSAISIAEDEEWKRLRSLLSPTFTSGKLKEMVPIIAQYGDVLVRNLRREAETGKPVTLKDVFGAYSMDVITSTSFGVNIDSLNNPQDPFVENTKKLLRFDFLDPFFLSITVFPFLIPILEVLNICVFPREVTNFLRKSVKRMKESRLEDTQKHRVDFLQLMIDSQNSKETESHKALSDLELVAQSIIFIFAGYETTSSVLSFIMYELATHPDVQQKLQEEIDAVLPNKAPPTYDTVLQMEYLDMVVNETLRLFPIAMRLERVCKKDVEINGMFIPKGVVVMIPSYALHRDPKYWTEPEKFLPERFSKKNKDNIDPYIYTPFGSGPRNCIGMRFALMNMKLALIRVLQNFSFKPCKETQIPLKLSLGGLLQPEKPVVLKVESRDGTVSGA

CYP1A2 = CYP1A2 (Homo sapiens (Human), UniProt P05177); experiment: Cytochrome P450 activity inhibition, CYP1A2; assay type: in vitro ADME; details: 10 μM, human liver microsomes
CYP1A2, sequence (P05177 whole entry): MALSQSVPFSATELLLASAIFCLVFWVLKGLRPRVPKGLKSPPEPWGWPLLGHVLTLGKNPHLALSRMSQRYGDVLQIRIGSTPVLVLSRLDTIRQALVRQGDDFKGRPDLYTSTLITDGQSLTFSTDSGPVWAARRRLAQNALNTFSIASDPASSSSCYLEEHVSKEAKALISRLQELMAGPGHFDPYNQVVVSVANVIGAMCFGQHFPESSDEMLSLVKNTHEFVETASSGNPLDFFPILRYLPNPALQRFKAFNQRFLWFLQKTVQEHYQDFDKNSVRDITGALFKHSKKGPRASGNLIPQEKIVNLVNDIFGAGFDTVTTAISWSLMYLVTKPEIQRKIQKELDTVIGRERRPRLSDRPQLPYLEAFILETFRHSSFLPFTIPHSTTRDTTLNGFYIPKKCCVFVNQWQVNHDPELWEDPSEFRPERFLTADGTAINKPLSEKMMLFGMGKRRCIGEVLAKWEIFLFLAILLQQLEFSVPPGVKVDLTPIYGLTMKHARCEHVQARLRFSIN
Description: as §1

CYP2C9 = CYP2C9 (Homo sapiens (Human), UniProt P11712); experiment: Cytochrome P450 activity inhibition, CYP2C9; assay type: in vitro ADME; details: 10 μM, human liver microsomes
CYP2C9, sequence (P11712 whole entry): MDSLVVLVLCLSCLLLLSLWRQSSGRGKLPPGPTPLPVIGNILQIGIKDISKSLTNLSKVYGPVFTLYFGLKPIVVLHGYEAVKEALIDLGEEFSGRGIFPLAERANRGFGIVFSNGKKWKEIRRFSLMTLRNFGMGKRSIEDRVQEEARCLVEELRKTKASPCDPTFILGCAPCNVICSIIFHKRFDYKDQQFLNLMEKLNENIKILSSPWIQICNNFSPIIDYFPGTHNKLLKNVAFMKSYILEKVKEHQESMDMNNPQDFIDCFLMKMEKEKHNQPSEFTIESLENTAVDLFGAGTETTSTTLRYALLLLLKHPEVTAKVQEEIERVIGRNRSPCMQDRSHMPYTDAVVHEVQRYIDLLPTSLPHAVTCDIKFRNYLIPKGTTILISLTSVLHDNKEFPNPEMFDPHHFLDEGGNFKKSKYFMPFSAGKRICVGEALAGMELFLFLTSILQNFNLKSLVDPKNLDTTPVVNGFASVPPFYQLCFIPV
Description: as §1

SMILES | Functional Assay, Cpds/Ref 5182 (ERRγ) | also measured
CN1CCC[C@@H]1CCOc1ccc(/C(=C(/CCCO)c2ccccc2)c2ccc(O)cc2)cc1 [Compound 6k] | 0.79 | 
CN1CCN(c2ccc(/C(=C(/CCCO)c3ccccc3)c3ccc([N+](=O)[O-])cc3)cc2)CC1 [Compound 18c] | 0.42 | CYP inhibition (% of control) 2C19 (CYP2C19): 80 % of control
CN1CCN(c2ccc(/C(=C(/CCCO)c3ccccc3)c3ccc(O)cc3)cc2)CC1 [Compound 18d] | 0.97 | CYP inhibition (% of control) 3A4 (CYP3A4): 64 % of control; CYP inhibition (% of control) 1A2 (CYP1A2): 88 % of control
Cc1ccc(/C(=C(\CCCO)c2ccccc2)c2ccc(N3CCN(C)CC3)cc2)cc1 [Compound 18f] | 0.82 | CYP inhibition (% of control) 1A2 (CYP1A2): >100 % of control
CC(C)N1CCN(c2ccc(/C(=C(/CCCO)c3ccccc3)c3ccc([N+](=O)[O-])cc3)cc2)CC1 [Compound 18g] | 0.84 | 
CCN1CCN(c2ccc(/C(=C(/CCCO)c3ccccc3)c3ccc(O)cc3)cc2)CC1 [Compound 18i] | 0.97 | 
CC(C)(C)OC(=O)N1CCN(c2ccc(/C(=C(/CCCO)c3ccccc3)c3ccc(Br)cc3)cc2)CC1 [Compound 18n] | 0.82 | 
OCCC/C(=C(\c1ccc(O)cc1)c1ccc(N2CCNCC2)cc1)c1ccccc1 [Compound 20c] | 0.93 | 
CCN1CCC(c2ccc(C(=C(CCCO)c3ccccc3)c3cccc(O)c3)cc2)CC1 [Compound 22ae] |  | CYP inhibition (% of control) 2C19 (CYP2C19): >100 % of control; CYP inhibition (% of control) 2C9 (CYP2C9): >100 % of control
OCCC/C(=C(\c1ccc(O)cc1)c1ccc(C2CN(C3CC3)C2)cc1)c1ccccc1 [Compound 22d] | 0.62 | CYP inhibition (% of control) 1A2 (CYP1A2): >100 % of control; CYP inhibition (% of control) 2C19 (CYP2C19): >100 % of control; CYP inhibition (% of control) 2C9 (CYP2C9): >100 % of control
Cc1ccc(/C(=C(\CCCO)c2ccccc2)c2ccc(C3CN(C(C)C)C3)cc2)cc1 [Compound 22e] | 0.61 | 
CC(C)N1CCC(c2ccc(/C(=C(/CCCO)c3ccccc3)c3cccc(O)c3)cc2)CC1 [Compound 22h] |  | CYP inhibition (% of control) 1A2 (CYP1A2): >100 % of control; CYP inhibition (% of control) 2C19 (CYP2C19): >100 % of control
OCCC/C(=C(\c1ccc(O)cc1)c1ccc(N2CCN(C3CCC3)CC2)cc1)c1ccccc1 [Compound 22q] |  | CYP inhibition (% of control) 3A4 (CYP3A4): 81 % of control
CC(C)N1CCC(c2ccc(/C(=C(/CCCO)c3ccccc3)c3ccc(N)cc3)cc2)CC1 [Compound 26c] | 4.80 | 
CC(C)N1CCN(c2ccc(/C(=C(/CCCO)c3ccccc3)c3ccc(OS(C)(=O)=O)cc3)cc2)CC1 [Compound 28a, (E)-4-(5-hydroxy-1-(4-(4-isopropylpiperazin-1-yl)phenyl)-2-phenylpent-1-en-1-yl)phenyl methanesulfonate] | 1.20 | 
CN1CCN(c2ccc(/C(=C(/CCCOC(=O)C(C)(C)C)c3ccccc3)c3ccc(O)cc3)cc2)CC1 [Compound 28f] | 0.98 | Functional Assay at 10 μM (% of control), Cpds (ERRγ): 4 % of control
CN1CCN(c2ccc(/C(=C(/CCCOC(=O)C(C)(C)C)c3ccccc3)c3ccc(OC(=O)C(C)(C)C)cc3)cc2)CC1 [Compound 28g] |  | Functional Assay at 10 μM (% of control), Cpds (ERRγ): 5.1 % of control
OCCC/C(=C(\c1ccc(O)cc1)c1ccc(OCCN2CCC[C@@H]2CO)cc1)c1ccccc1 [Compound 38c] | 0.99 | 
C[Si](C)(CN1CCCC1)c1ccc(/C(=C(/CCCO)c2ccccc2)c2ccc(O)cc2)cc1 [Compound 42c] | 0.89 | Functional Assay at 10 μM (% of control), Cpds (ERRγ): 2.6 % of control
